17 compounds from PubChem BioAssay (NCI) can be followed below.

The structures appear in SMILES notation. Values joined by “and” are separate entries in the source; they are usually repeats but may differ in a detail not shown here. Identical values can stand only once.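 Compound exposure: 48 hours, 5 concentrations, 96-well plates. GI50 = concentration required for 50% inhibition of growth. TGI is the concentration that stops growth completely.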

Common to all, as to assay: growth of human tumour cells (NCI), 48 h
Experiment [1] relates to CAKI-1 renal.
Experiment [2] relates to COLO 205 colon.
Experiment [3] relates to HCT-116 colon.
The subject of experiment [4] is HL-60(TB) leukemia.
Experiment [5] concerns HOP-62 NSCLC.
The subject of experiment [6] is IGROV1 ovarian.
In experiment [7] the test system is OVCAR-3 ovarian.
Experiment [8] deals with OVCAR-5 ovarian.
Experiment [9] concerns SK-OV-3 ovarian.
Experiment [10] has as its system UACC-257 melanoma.

As for `COc1ccc(C(=O)Cn2c(C(=O)c3ccc(OC)cc3)nc3ccccc32)cc1`, the GI50 in [1] is 1.94 µM; in experiment [2], 2.38 µM; in experiment [3], 2.36 µM; in experiment [4], 0.436 µM; in [5] it was 5.46 µM; in experiment [6], 5.09 µM. Besides, the GI50 in [7] is 2.03 µM; in experiment [8], over 25.1 µM; in experiment [9] it was 2.96 µM; in experiment [10], 53 µM. Moreover, the TGI is over 100 µM in experiment [1]; 8.21 µM in experiment [2]; over 100 µM in [3]; 10.8 µM in experiment [4]; over 100 µM in [5]; over 100 µM in experiment [6]. In addition, the TGI in experiment [7], in experiment [8], in [9] and in [10] was over 100 µM throughout.
Consider `Cc1cc2c(cc1C)NC(=O)C(NC(=O)/C=C/c1ccccc1)C=N2` (configuration not stated), for which the TGI was over 100 µM in experiment [1]; 34.6 µM in experiment [2]; 50.8 µM in experiment [3]; 43.5 µM in experiment [4]; over 100 µM in [5]; over 100 µM in experiment [6]. Moreover, the TGI in experiment [7] is 55.2 µM; in experiment [8], over 100 µM; in experiment [9], over 100 µM; in [10], 82.9 µM.
Regarding `Nc1c(C(=O)Nc2ccccc2)sc2nc3c(cc12)CCCCCC3`, the GI50 in [1] was 0.526 µM; in experiment [2] it was 0.307 µM; in [3], 0.328 µM; in [4], 0.299 µM; in experiment [5], 0.648 µM; in [6], 0.863 µM. Besides, the GI50 is 0.319 µM in experiment [7], 0.699 µM in experiment [8], 0.465 µM in experiment [9] and 3.1 µM in experiment [10]. Further, the TGI in [1] came to 16 µM; in experiment [2] it was 1.48 µM; in experiment [3], 4.85 µM; in [4], 4.55 µM; in [5] it was 6.97 µM; in experiment [6] it was 19.9 µM. Also, the TGI in experiment [7] came out at 1.07 µM; in experiment [8], 16.9 µM; in experiment [9], 3 µM; in [10], 28.9 µM.
Consider `CNc1ccccc1C(=O)N/N=C/C=C/c1ccccc1`, for which the GI50 in experiment [1] was 2.79 µM; in [2], 0.671 µM; in [3], 0.499 µM; in experiment [4], 0.566 µM; in [5] it was 6.9 µM; in experiment [6] it was 4.41 µM. For the same compound, the GI50 in experiment [7] is 0.563 µM; in [8], 6.64 µM; in experiment [9], 4.15 µM; in [10] it was 11.4 µM. The TGI was over 100 µM in experiment [1]; 10.3 µM in [2]; over 100 µM in [3]; 18.5 µM in [4]; over 61.6 µM in [5]; over 100 µM in experiment [6]. Besides, the TGI is over 100 µM in [7], over 76.5 µM in experiment [8], over 100 µM in experiment [9] and 72.1 µM in [10].
For `CS(=O)(=O)c1ccc(Oc2cc(F)cc(C#N)c2)c2c1[C@H](O)[C@H](F)[C@@H]2F`, the GI50 in experiment [1], in [2], in experiment [3], in [4], in experiment [5] and in [6] was over 100 µM each time. In addition, the GI50 in experiment [7], in experiment [8], in [9] and in [10] was over 100 µM in each case. The TGI in [1], in experiment [2], in [3], in experiment [4], in [5] and in experiment [6] was over 100 µM each time. Also, the TGI in experiment [7], in experiment [8], in experiment [9] and in [10] was over 100 µM each time.
Take `CCNC(=O)C[C@@H]1N=C(c2ccc(Cl)cc2)c2cc(OC)ccc2-n2c(C)nnc21`: the GI50 was 0.584 µM in experiment [1]; 0.994 µM in [2]; 5.73 µM in experiment [3]; 0.275 µM in [4]; 2.1 µM in [5]; 12.2 µM in experiment [6]. For the same compound, the GI50 was 6.29 µM in [7], over 100 µM in experiment [8], 2.37 µM in [9] and 2 µM in experiment [10]. The TGI in experiment [1] is over 100 µM; in experiment [2], over 100 µM; in experiment [3], over 100 µM; in experiment [4], 38.1 µM; in experiment [5], over 100 µM; in experiment [6] it was over 100 µM. Further, the TGI in experiment [7], in [8], in experiment [9] and in experiment [10] was over 100 µM each time.
Turning to `CC(C)(C)[Si](C)(C)OCC1CCC(n2cnc3c(NC(=O)c4ccccc4)ncnc32)O1` (configuration not stated), the TGI in experiment [1] was determined as 46.9 µM; in experiment [2], 35.6 µM; in [3], 33.5 µM; in experiment [4], 38.2 µM; in experiment [5], 38 µM; in [6] it was 32.7 µM. For the same compound, the TGI in [7] was determined as 28 µM; in [8], 32.3 µM; in experiment [9] it was 44.9 µM; in [10] it was 33.4 µM.
As to `COc1cc(/C=C(/C)[N+](=O)[O-])ccc1O`, the GI50 in experiment [1] is 2.17 µM and 1.38 µM; in experiment [2] it was 1.99 µM and 1.45 µM; in [3], 1.65 µM and 1.71 µM; in [4], 2.75 µM; in [5], 2.46 µM; in experiment [6] it was 2.89 µM and 1.57 µM. The GI50 in [7] was 1.96 µM and 1.61 µM; in experiment [8], 3.47 µM and 2.66 µM; in experiment [9], 8.15 µM and 4.78 µM; in experiment [10] it was 1.66 µM and 1.61 µM. In addition, the TGI in [1] is 6.07 µM and 3.26 µM; in experiment [2], 3.99 µM and 2.85 µM; in [3], 3.12 µM and 3.29 µM; in [4], 7.01 µM; in experiment [5], 6.01 µM; in [6], 8.54 µM and 5.14 µM. The TGI in experiment [7] was 3.46 µM and 3.17 µM; in experiment [8], 10.1 µM and 7.96 µM; in experiment [9] it was 20.4 µM and 16.9 µM; in experiment [10] it was 3.39 µM and 3.25 µM.
With `O=C1OC(c2ccco2)=N/C1=C\c1ccc(Cl)c(Cl)c1`, the TGI was over 100 µM in experiment [1]; over 100 µM in experiment [2]; over 100 µM in experiment [3]; over 100 µM in experiment [4]; 94.6 µM in experiment [5]; over 100 µM in experiment [6]. The TGI in experiment [7], in experiment [8], in experiment [9] and in experiment [10] was over 100 µM in each case.
As for `C=C1C(=O)O[C@H]2[C@H]1CC/C(COC(=O)C(=O)c1c[nH]c3ccccc13)=C\CC[C@@]1(C)O[C@@H]21`, the GI50 in experiment [1] was 2.97 µM; in experiment [2], 1.8 µM; in experiment [3], 1.68 µM; in [4], 1.86 µM; in experiment [5], 1.72 µM; in [6] it was 2.11 µM. Besides, the GI50 is 1.86 µM in experiment [7], 2.35 µM in experiment [8], 11.9 µM in experiment [9] and 1.64 µM in experiment [10]. Moreover, the TGI in [1] was 13.5 µM; in experiment [2], 3.91 µM; in experiment [3], 3.24 µM; in experiment [4], 4.67 µM; in experiment [5] it was 4 µM; in [6] it was 4.39 µM. In addition, the TGI in experiment [7] came to 4.63 µM; in experiment [8], 6.42 µM; in experiment [9], 24.6 µM; in experiment [10], 3.53 µM.
As for `Cn1ccnc1C(=O)/C=C/c1ccc(CC(=O)Nc2ccc(Cl)cc2)cc1`, the GI50 in [1] was 13.5 µM; in experiment [2], 9.44 µM; in experiment [3], 1.31 µM; in experiment [4], 4.81 µM; in experiment [5] it was 2.16 µM; in experiment [6], 5.27 µM. For the same compound, the GI50 in [7] was 1.03 µM; in experiment [8], 9.97 µM; in [9] it was 8.79 µM; in experiment [10] it was over 25 µM. The TGI in [1], in [2], in experiment [3], in experiment [4], in experiment [5] and in [6] was over 25 µM in each case. For the same compound, the TGI in experiment [7], in experiment [8], in experiment [9] and in experiment [10] was over 25 µM in each case.
`O=C(/C=C/c1ccco1)c1ccc(Nc2nc(Nc3ccc(F)cc3)nc(Nc3ccc(Cl)cc3)n2)cc1`: the GI50 was 19.2 µM in [1]; 12.1 µM in experiment [2]; 16.5 µM in experiment [3]; over 42.3 µM in [4]; over 50 µM in experiment [5]; 25.8 µM in [6]. Moreover, the GI50 in experiment [7] was 18 µM; in [8], over 100 µM; in experiment [9] it was 26.6 µM; in [10], 15.2 µM. Further, the TGI was over 54 µM in experiment [1]; over 100 µM in [2]; over 54.4 µM in [3]; 98.8 µM in experiment [4]; over 87.1 µM in experiment [5]; over 81 µM in [6]. Further, the TGI in experiment [7] was 56.8 µM; in experiment [8], over 100 µM; in experiment [9], over 56.2 µM; in experiment [10], over 57.4 µM.
For `O=C(Nc1ccc(Cl)c([N+](=O)[O-])c1)Nc1nc2ccccc2s1`, the GI50 is 2.08 µM in experiment [1]; 1.78 µM in experiment [2]; 3.57 µM in [3]; 4.48 µM in experiment [4]; 3.21 µM in experiment [5]; 3.62 µM in experiment [6]. For the same compound, the GI50 is 3.27 µM in experiment [7], 4.49 µM in [8], 2.6 µM in experiment [9] and 2.4 µM in experiment [10]. Further, the TGI came to 6.46 µM in experiment [1]; 3.39 µM in experiment [2]; 14.9 µM in [3]; 24 µM in [4]; 12 µM in experiment [5]; 17.4 µM in experiment [6]. Moreover, the TGI in experiment [7] turned out to be 10.6 µM; in [8], 19.3 µM; in experiment [9] it was 8.46 µM; in experiment [10], 6.99 µM.
As to `CN(N=O)C(=O)Nc1c[nH]c(=O)[nH]c1=O`, the TGI in [1], in [2], in [3], in experiment [4], in experiment [5] and in experiment [6] was over 100 µM in each case. The TGI in experiment [7], in experiment [8], in experiment [9] and in [10] was over 100 µM in each case.
As to `Cc1ccc(C)c(NC(=O)C(=O)C2C(=O)C3=C(CC2(C)C)Nc2ccccc2S3)c1` (configuration not stated), the TGI in experiment [1], in experiment [2], in [3], in [4], in experiment [5] and in [6] was over 100 µM throughout. Besides, the TGI in experiment [7], in [8], in [9] and in experiment [10] was over 100 µM in each case.
In the case of `CCN1C(=O)C/C(=C\C(C)=O)Nc2ccccc21`, the TGI in [1], in experiment [2], in experiment [3], in [4], in experiment [5] and in experiment [6] was over 100 µM each time. In addition, the TGI in experiment [7], in experiment [8], in experiment [9] and in experiment [10] was over 100 µM each time. Besides, the GI50 in [4] and in [10] was over 100 µM throughout.
Consider `O=C1c2ccccc2-c2c1c1ccccc1c(=O)n2CCCNCCCn1c2c(c3ccccc3c1=O)C(=O)c1ccccc1-2`, for which the GI50 is 8.12 µM in [1]; 10.6 µM in experiment [2]; 1.75 µM in [3]; over 50 µM in experiment [4]; 2.68 µM in experiment [5]; 1.63 µM in experiment [6]. For the same compound, the GI50 was 5.42 µM in [7], 3.04 µM in [8], 11.7 µM in experiment [9] and 10.2 µM in experiment [10]. For the same compound, the TGI was 17.5 µM in experiment [1]; over 31.1 µM in [2]; over 28.9 µM in experiment [3]; over 50 µM in experiment [4]; 9.19 µM in [5]; over 50 µM in experiment [6]. The TGI in experiment [7] was 16.5 µM; in experiment [8], 6.08 µM; in experiment [9], 40.5 µM; in experiment [10], 25.7 µM.
